As usually defined, the viability is a read-out of living cells in per cent, often relative to untreated cells.

Data on 59 compounds can be found in article PMC12040169 (PLOS Biology, 2025).

This series can be described thus: in vitro. The settings on record: human, hela cells, % viability.
For the compound `O=C(CN1CCCC1)N1CCCC1c1nc2ccccc2[nH]1` (centres unmarked) [CBK284003], the viability at 28.5 h, 10 µM is 89.4%.
As for `Cc1ccc(CN2Cc3cc4ccccc4nc3OC(C)C2=O)o1` (centres unmarked) [CBK284004], the figure is 90.6%; as for `CC(C)N(C(=O)CN1C(=O)N2CCN=C2c2ccccc21)C(C)C` [CBK284005], 87%.
With `O=C(c1cccs1)N1CCCC1c1nc2ccccc2[nH]1` (centres unmarked) [CBK284006], the viability at 28.5 h, 10 µM turned out to be 81.8%.
For `COC1CCCC(C(=O)N2CCCC2c2nc3ccccc3[nH]2)C1` (centres unmarked) [CBK284007] the value was 101%.
As for `CCn1nc2c3ccccc3nc(C3CC3)n2c1=O` [CBK284008], the figure is 68.8%; as for `Cc1nc2c(c(=O)[nH]1)CN(Cc1ccc(F)cc1)CC2` [CBK284009], 86.9%; as for `CC(C)N(C(=O)N1CCC2(CC1)CC(=O)c1ccccc1O2)C(C)C` [CBK284010], 90.7%.
Regarding `Cc1ccc(CCC(=O)N2CCCC2c2nc3ccccc3[nH]2)o1` (centres unmarked) [CBK284012], the viability at 28.5 h, 10 µM worked out at 93.3%.
As for `Cc1noc(C)c1C(=O)NC1(c2ccc(F)cc2)CCCC1` [CBK284013], the figure is 93.4%; as for `Cn1c(C(=O)OCC(=O)NC(C)(C)C)cc2occc21` [CBK284015], 109%; as for `CC1CCN(CC(=O)NC2CCN(C(C)c3ccccc3)CC2)CC1` (centres unmarked) [CBK284017], 101%.
In the case of `O=C1C2CCCN2S(=O)(=O)c2ccccc2N1Cc1ccccc1` (centres unmarked) [CBK284018], the viability at 28.5 h, 10 µM amounted to 88.6%.
`Cn1c(=O)n(CC(=O)OCc2ccccc2)c2cccnc21` [CBK284019]: the viability at 28.5 h, 10 µM turned out to be 91.1%.
Regarding `CCCNC(=O)Cn1nc(C)n2c(cc3sccc32)c1=O` [CBK284020], the viability at 28.5 h, 10 µM amounted to 102%.
For `Cc1nn(CC(=O)NC(C)(C)C)c(=O)c2cc3sccc3n12` [CBK284021] the value was 80.9%; for `Cc1nn(CC(=O)N2CCCC2)c(=O)c2cc3sccc3n12` [CBK284024], 95.2%.
For `Cc1nn(CC(=O)NC(C)C)c(=O)c2cc3ccsc3n12` [CBK284027] the value was 83.9%; for `CCc1nn(CC(=O)N2CCCC2)c(=O)c2cc3sccc3n12` [CBK284028], 85.8%.
As for `CCCNC(=O)Cn1nc(CC)n2c(cc3sccc32)c1=O` [CBK284030], the figure is 89.3%; as for `CC1CC(C)CN(C(=O)CN2C3CCC2CC(O)(c2ccco2)C3)C1` (centres unmarked) [CBK284032], 92.5%.
Take `O=C(Cc1ccc(F)cc1)N1C2CCC1CC(O)(c1ccco1)C2` (centres unmarked) [CBK284033]: the viability at 28.5 h, 10 µM amounted to 86.4%.
As for `CC1CCC(NC(=O)CN2C3CCC2CC(O)(c2ccco2)C3)CC1` (centres unmarked) [CBK284036], the figure is 91%.
For `O=C(C1CC1)N1CCC(Cn2nc(-c3cccs3)ccc2=O)CC1` [CBK284039] the value was 101%.
For `O=C(CN1C2CCC1CC(O)(c1ccco1)C2)N1CCCC1` (centres unmarked) [CBK284042] the value was 88.7%; for `CC1CCCC(C)N1C(=O)CN1C2CCC1CC(O)(c1ccco1)C2` (centres unmarked) [CBK284043], 85.4%; for `CCN(CC)C(=O)Cn1nc(C)n2c(cc3sccc32)c1=O` [CBK284044], 88.7%.
Take `Cc1nn(CC(=O)NC2CC2)c(=O)c2cc3sccc3n12` [CBK284047]: the viability at 28.5 h, 10 µM was found to be 94.9%.
For `Cc1nn(CC(=O)NC(C)C)c(=O)c2cc3sccc3n12` [CBK284048] the value was 104%; for `Cn1ccnc1C1(O)CC2CCC(C1)N2C(=O)C1CCCC1` (centres unmarked) [CBK284052], 86.4%.
As for `CCc1nn(CC(=O)N(CC)CC)c(=O)c2cc3sccc3n12` [CBK284054], the figure is 77.8%.
As for `CCc1nn(CC(=O)NC(C)(C)C)c(=O)c2cc3sccc3n12` [CBK284056], the figure is 73.8%; as for `Cc1nn(CC(=O)OC2CCCCC2)c(=O)c2cc3ccsc3n12` [CBK284058], 82.5%; as for `Cc1nn(Cc2ccc(F)cc2)c(=O)c2cc3sccc3n12` [CBK284059], 72.7%.
`Cc1nn(CC(=O)N2CCCCCC2)c(=O)c2cc3ccsc3n12` [CBK284060]: the viability at 28.5 h, 10 µM is 84.8%.
For `CCCNC(=O)Cn1nc(C)n2c(cc3ccsc32)c1=O` [CBK284061] the value was 78.2%; for `Cc1cc2c(cc3c(=O)n(CC(=O)N4CCCC4)nc(C)n32)s1` [CBK284065], 92.4%; for `CCCNC(=O)Cn1nc(C)n2c(cc3sc(C)cc32)c1=O` [CBK284068], 86.1%.
For `Cc1cc2c(cc3c(=O)n(CC(=O)NC(C)(C)C)nc(C)n32)s1` [CBK284070] the value was 84.1%; for `Cc1cc2c(cc3c(=O)n(CC(=O)NC4CCCC4)nc(C)n32)s1` [CBK284072], 96.9%; for `CCc1nn(CC(=O)NC2CCCC2)c(=O)c2cc3sccc3n12` [CBK284077], 84%.
For `CCOC(=O)C(C)n1nc(C)n2c(cc3ccsc32)c1=O` (centres unmarked) [CBK284079] the value was 96.2%; for `Cc1nn(CC(=O)NC2CCCCC2)c(=O)c2cc3ccsc3n12` [CBK284080], 94.9%.
As to `Cc1nn(CC(=O)N2CCC(C)CC2)c(=O)c2cc3ccsc3n12` [CBK284081], the viability at 28.5 h, 10 µM came to 91.3%.
For `Cn1ccnc1C1(O)CC2CCC(C1)N2C(=O)c1ccccc1F` (centres unmarked) [CBK284085] the value was 87.4%; for `Cn1ccnc1C1(O)CC2CCC(C1)N2C(=O)c1cccc(F)c1` (centres unmarked) [CBK284089], 93.9%.
With `Cn1ccnc1C1(O)CC2CCC(C1)N2C(=O)c1ccccc1Cl` (centres unmarked) [CBK284090], the viability at 28.5 h, 10 µM worked out at 99%.
For `Cn1ccnc1C1(O)CC2CCC(C1)N2C(=O)c1cccc(Cl)c1` (centres unmarked) [CBK284091] the value was 86%; for `Cn1ccnc1C1(O)CC2CCC(C1)N2C(=O)c1c(F)cccc1F` (centres unmarked) [CBK284092], 88.7%.
In the case of `O=C(CN1C2CCC1CC(O)(c1ccco1)C2)N1CCCCC1` (centres unmarked) [CBK284093], the viability at 28.5 h, 10 µM worked out at 90.3%.
As for `CCN(CC)C(=O)CN1C2CCC1CC(O)(c1ccco1)C2` (centres unmarked) [CBK284094], the figure is 106%; as for `Cc1cc2c(cc3c(=O)n(CC(=O)NCC4CC4)nc(C)n32)s1` [CBK284097], 96.6%; as for `CCc1nn(CCN2CCCC2)c(=O)c2cc3sc(C)cc3n12` [CBK284098], 88.5%.
As for `CCc1nn(CC(=O)NC2CC2)c(=O)c2cc3sc(C)cc3n12` [CBK284099], the figure is 91.9%; as for `CCc1nn(CC(=O)NCC2CC2)c(=O)c2cc3sc(C)cc3n12` [CBK284100], 85.7%; as for `CCN(CC)C(=O)Cn1nc(C)n2c(cc3ccsc32)c1=O` [CBK284104], 97.3%.
With `O=C(CN1C2CCC1CC(O)(c1ccco1)C2)NCc1ccccc1` (centres unmarked) [CBK284105], the viability at 28.5 h, 10 µM came out at 94.5%.
For `O=C(CN1C2CCC1CC(O)(c1ccco1)C2)Nc1ccccc1F` (centres unmarked) [CBK284109] the value was 96.7%; for `CC(C(=O)N1C2CCC1CC(O)(c1ccco1)C2)c1ccccc1` (centres unmarked) [CBK284112], 97.8%.
